Source: patent US20260308145A1, “CDK2 INHIBITORS AND METHODS OF USING SAME” (Shenzhen lonova Life Science Co., Ltd., priority 2023, published 2026)

Key:
Format in all cases: biochemical
CDK2/cyclinE1 = target: T1, CDK2/cyclinE1 (Homo sapiens, UniProt P24941); assay: Cyclin-dependent kinase activity assay (continuous ATP coupling assay), CDK2/cyclinE1; conditions: CDK2/cyclinE1 5 nM, ATP 300 μM, Rb copeptide 100 μM, 15 min preincubation, pH 7.5, 1% DMSO
T1 construct: purchased Carna Biosciences 04-165
Procedure, shortened: (§1)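 PK/LDH-coupled continuous assay, ATP at each kinase's Km, Tris pH 7.5 with 1% DMSO final; enzyme preincubated 15 min with compound (10 μM to 0.05 nM, 1:3), NADH fluorescence decrease (ex 340/em 460) gave velocities. IC50 by 4-variable fit; Ki by quadratic/Morrison fit.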

CDK6/cyclinD3 = target: T2, CDK6/cyclinD3 (Homo sapiens, UniProt Q00534); assay: Cyclin-dependent kinase activity assay (continuous ATP coupling assay), CDK6/cyclinD3; conditions: CDK6/cyclinD3 25 nM, ATP 500 μM, Rb copeptide 500 μM, 15 min preincubation, pH 7.5, 1% DMSO
T2 construct: purchased Carna Biosciences 04-107
Procedure, shortened: as §1

CDK1/cyclinB1 = target: T3, CDK1/cyclinB1 (Homo sapiens, UniProt P06493); assay: Cyclin-dependent kinase activity assay (continuous ATP coupling assay), CDK1/cyclinB1; conditions: CDK1/cyclinB1 10 nM, ATP 200 μM, Histone1 copeptide 100 μM, 15 min preincubation, pH 7.5, 1% DMSO
T3 construct: purchased Carna Biosciences 04-102
Procedure, shortened: as §1

CDK4/cyclinD3 = target: T4, CDK4/cyclinD3 (Homo sapiens, UniProt P11802); assay: Cyclin-dependent kinase activity assay (continuous ATP coupling assay), CDK4/cyclinD3; conditions: CDK4/cyclinD3 60 nM, ATP 500 μM, Rb copeptide 500 μM, 15 min preincubation, pH 7.5, 1% DMSO
T4 construct: purchased Carna Biosciences 04-105
Procedure, shortened: as §1

T3 sequence (P06493 whole entry): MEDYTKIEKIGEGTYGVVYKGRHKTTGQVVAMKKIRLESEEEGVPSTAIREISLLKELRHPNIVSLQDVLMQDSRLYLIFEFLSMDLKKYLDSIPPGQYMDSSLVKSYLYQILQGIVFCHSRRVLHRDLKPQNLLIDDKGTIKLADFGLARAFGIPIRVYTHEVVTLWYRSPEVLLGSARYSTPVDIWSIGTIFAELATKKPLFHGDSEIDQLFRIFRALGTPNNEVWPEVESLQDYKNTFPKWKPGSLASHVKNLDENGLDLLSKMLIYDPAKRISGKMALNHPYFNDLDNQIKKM
T3 sequence (P14635 whole entry partner): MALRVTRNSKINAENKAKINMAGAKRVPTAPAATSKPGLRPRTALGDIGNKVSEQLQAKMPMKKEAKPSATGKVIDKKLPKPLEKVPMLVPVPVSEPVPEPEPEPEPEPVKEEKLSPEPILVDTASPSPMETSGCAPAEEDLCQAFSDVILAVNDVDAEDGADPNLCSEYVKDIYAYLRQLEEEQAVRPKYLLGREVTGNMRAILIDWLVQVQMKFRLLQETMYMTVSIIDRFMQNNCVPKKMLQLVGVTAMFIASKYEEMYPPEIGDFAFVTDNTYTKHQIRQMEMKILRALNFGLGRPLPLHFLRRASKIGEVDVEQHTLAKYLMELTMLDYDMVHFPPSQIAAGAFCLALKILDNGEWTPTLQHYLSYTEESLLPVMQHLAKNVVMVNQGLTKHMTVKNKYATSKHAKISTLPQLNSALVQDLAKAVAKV
T4 sequence (P11802 whole entry): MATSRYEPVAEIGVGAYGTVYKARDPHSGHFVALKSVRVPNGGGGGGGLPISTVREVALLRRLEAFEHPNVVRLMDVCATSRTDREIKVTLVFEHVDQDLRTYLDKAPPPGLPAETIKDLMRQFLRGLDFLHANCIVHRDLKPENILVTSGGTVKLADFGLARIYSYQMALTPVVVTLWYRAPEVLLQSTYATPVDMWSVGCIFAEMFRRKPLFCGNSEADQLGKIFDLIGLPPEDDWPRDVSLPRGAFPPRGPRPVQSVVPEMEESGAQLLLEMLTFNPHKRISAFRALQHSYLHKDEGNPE
T4 sequence (P30281 whole entry partner): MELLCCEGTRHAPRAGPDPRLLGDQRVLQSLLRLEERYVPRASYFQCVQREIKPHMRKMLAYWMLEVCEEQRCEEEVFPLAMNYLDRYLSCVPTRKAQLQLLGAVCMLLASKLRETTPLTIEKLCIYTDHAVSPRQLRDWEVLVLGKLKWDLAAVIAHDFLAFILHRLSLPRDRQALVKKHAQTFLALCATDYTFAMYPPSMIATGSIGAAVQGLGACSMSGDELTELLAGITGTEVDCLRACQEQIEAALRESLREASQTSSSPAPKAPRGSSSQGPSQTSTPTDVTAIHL
T2 sequence (Q00534 whole entry): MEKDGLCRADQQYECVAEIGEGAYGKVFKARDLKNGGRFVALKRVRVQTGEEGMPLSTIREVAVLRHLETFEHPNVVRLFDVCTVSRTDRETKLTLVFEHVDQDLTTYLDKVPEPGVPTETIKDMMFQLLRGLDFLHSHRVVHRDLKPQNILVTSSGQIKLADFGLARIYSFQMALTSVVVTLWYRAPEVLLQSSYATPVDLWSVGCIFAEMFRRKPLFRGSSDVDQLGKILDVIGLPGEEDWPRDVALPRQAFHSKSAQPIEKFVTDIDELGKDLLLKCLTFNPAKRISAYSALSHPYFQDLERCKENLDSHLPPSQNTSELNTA
T2 sequence (P30281 whole entry partner): as the sequence (P30281 whole entry partner) above

Row | SMILES | IC50 (CDK2/cyclinE1) | IC50 (CDK6/cyclinD3) | IC50 (CDK1/cyclinB1) | IC50 (CDK4/cyclinD3)
1 | CNS(=O)(=O)c1ccc(Nc2ncc(C(F)(F)F)c(-n3cc(C4CN(C)C4)cn3)n2)cc1 [Example 97] | ≤ 10 nM | ≥ 100 nM | 10 to 100 nM | 10 to 100 nM
2 | CNS(=O)(=O)c1ccc(Nc2ncc(C(F)(F)F)c(-n3cc(C4CN(S(C)(=O)=O)C4)cn3)n2)cc1 [Example 98] | 10 to 100 nM | ≥ 100 nM | ≥ 100 nM | ≥ 100 nM
3 | CNS(=O)(=O)c1ccc(Nc2ncc(C(F)(F)F)c(-n3cc(C4CN(C(C)=O)C4)cn3)n2)cc1 [Example 99] | 10 to 100 nM | ≥ 100 nM | ≥ 100 nM | ≥ 100 nM
4 | CNS(=O)(=O)c1ccc(Nc2ncc(C(F)(F)F)c(-n3cc(N4CC(O)C4)cn3)n2)cc1 [Example 100] | ≤ 10 nM | ≥ 100 nM | 10 to 100 nM | ≥ 100 nM
5 | CNS(=O)(=O)c1ccc(Nc2ncc(C(F)(F)F)c(-n3cc(C4CCC4)cn3)n2)cc1 [Example 101] | 10 to 100 nM | ≥ 100 nM | ≥ 100 nM | ≥ 100 nM
6 | CNS(=O)(=O)c1ccc(Nc2ncc(C(F)(F)F)c(-n3cc(C4COC4)cn3)n2)cc1 [Example 102] | ≤ 10 nM | 10 to 100 nM | ≥ 100 nM | 10 to 100 nM
7 | CNS(=O)(=O)c1ccc(Nc2ncc(C(F)(F)F)c(-n3cc([C@H]4C[C@@H](O)C4)cn3)n2)cc1 [Example 103, 4-[[4-[4-(3-hydroxycyclobutyl)pyrazol-1-yl]-5-(trifluoromethyl)pyrimidin-2-yl]amino]-N-methyl-benzene sulfonamide] | ≤ 10 nM | 10 to 100 nM | 10 to 100 nM | 10 to 100 nM
8 | CNS(=O)(=O)c1ccc(Nc2ncc(C(F)(F)F)c(-n3cc([C@H]4C[C@H](O)C4)cn3)n2)cc1 [Example 106, 4-((4-(4-((1r,3r)-3-hydroxycyclobutyl)-1H-pyrazol-1-yl)-5-(trifluoromethyl)pyrimidin-2-yl)amino)-N-methylbenzenesulfonamide] | 10 to 100 nM | ≥ 100 nM | ≥ 100 nM | ≥ 100 nM
9 | CC(C)(O)CCc1cnn(-c2nc(NC3CCN(S(C)(=O)=O)CC3)ncc2C(F)(F)F)c1 [Example 109] | 10 to 100 nM | 10 to 100 nM | ≥ 100 nM | 10 to 100 nM
10 | CC(O)CNS(=O)(=O)c1ccc(Nc2ncc(C(F)(F)F)c(-n3cccn3)n2)cc1 (stereo not drawn) [Example 110] | ≤ 10 nM | ≥ 100 nM | ≥ 100 nM | ≥ 100 nM
11 | CC(C)(O)CNS(=O)(=O)c1ccc(Nc2ncc(C(F)(F)F)c(-n3cccn3)n2)cc1 [Example 111] | ≤ 10 nM | ≥ 100 nM | ≥ 100 nM | ≥ 100 nM
12 | O=S(=O)(NCCCO)c1ccc(Nc2ncc(C(F)(F)F)c(-n3cccn3)n2)cc1 [Example 112] | ≤ 10 nM | ≥ 100 nM | ≥ 100 nM | ≥ 100 nM
13 | O=S(=O)(NCCCCO)c1ccc(Nc2ncc(C(F)(F)F)c(-n3cccn3)n2)cc1 [Example 113] | ≤ 10 nM | ≥ 100 nM | ≥ 100 nM | ≥ 100 nM
14 | Cc1cnc(Nc2ccc(S(=O)(=O)NCCO)cc2)nc1-n1cccn1 [Example 114] | 10 to 100 nM | ≥ 100 nM | ≥ 100 nM | ≥ 100 nM
15 | O=S(=O)(NCCO)c1ccc(Nc2ncc(F)c(-n3cccn3)n2)cc1 [Example 115] | 10 to 100 nM | ≥ 100 nM | ≥ 100 nM | ≥ 100 nM
16 | O=S(=O)(NCCO)c1ccc(Nc2ncc(C(F)F)c(-n3cccn3)n2)cc1 [Example 116, 4-((5-(difluoromethyl)-4-(1H-pyrazol-1-yl)pyrimidin-2-yl)amino)-N-(2-hydroxyethyl)benzenesulfonamide] | 10 to 100 nM | ≥ 100 nM | ≥ 100 nM | ≥ 100 nM
17 | O=S(=O)(NCCO)c1ccc(Nc2ncc(Cl)c(-n3cccn3)n2)cc1 [Example 117] | ≤ 10 nM | ≥ 100 nM | 10 to 100 nM | ≥ 100 nM

Row | SMILES | IC50 (CDK2/cyclinE1) | IC50 (CDK6/cyclinD3) | IC50 (CDK1/cyclinB1) | IC50 (CDK4/cyclinD3)
18 | O=S(=O)(NCCO)c1ccc(Nc2nccc(-n3cccn3)n2)cc1 [Example 118] | ≥ 100 nM | ≥ 100 nM | ≥ 100 nM | ≥ 100 nM
19 | N#Cc1cnc(Nc2ccc(S(=O)(=O)NCCO)cc2)nc1-n1cccn1 [Example 119] | 10 to 100 nM | 10 to 100 nM | ≥ 100 nM | ≥ 100 nM
20 | CS(=O)(=O)Nc1ccc(Nc2ncc(C(F)(F)F)c(-n3cccn3)n2)cc1 [Example 120] | 10 to 100 nM | ≥ 100 nM | ≥ 100 nM | ≥ 100 nM
21 | CS(=O)(=O)Nc1cccc(Nc2ncc(C(F)(F)F)c(-n3cccn3)n2)c1 [Example 121] | 10 to 100 nM | ≥ 100 nM | ≥ 100 nM | ≥ 100 nM
22 | CNS(=O)(=O)c1cccc(Nc2ncc(C(F)(F)F)c(-n3cccn3)n2)c1 [Example 122] | ≥ 100 nM | ≥ 100 nM | ≥ 100 nM | ≥ 100 nM
23 | O=S(=O)(NCCO)c1ccc(Nc2ncc(C(F)(F)F)c(-n3cccn3)n2)cc1F [Example 123] | 10 to 100 nM | ≥ 100 nM | ≥ 100 nM | ≥ 100 nM
24 | O=S(=O)(NCCO)c1ccc(Nc2ncc(C(F)(F)F)c(-n3cccn3)n2)c(F)c1 [Example 124] | ≤ 10 nM | ≥ 100 nM | ≥ 100 nM | ≥ 100 nM
25 | Cc1cc(Nc2ncc(C(F)(F)F)c(-n3cccn3)n2)ccc1S(=O)(=O)NCCO [Example 125] | 10 to 100 nM | ≥ 100 nM | ≥ 100 nM | ≥ 100 nM
26 | Cc1cc(S(=O)(=O)NCCO)ccc1Nc1ncc(C(F)(F)F)c(-n2cccn2)n1 [Example 126] | ≤ 10 nM | ≥ 100 nM | ≥ 100 nM | ≥ 100 nM
27 | COCCNS(=O)(=O)c1ccc(Nc2ncc(C(F)(F)F)c(-n3cccn3)n2)cc1 [Example 127] | 10 to 100 nM | ≥ 100 nM | ≥ 100 nM | ≥ 100 nM
28 | O=S(=O)(NCCOC(F)(F)F)c1ccc(Nc2ncc(C(F)(F)F)c(-n3cccn3)n2)cc1 [Example 128] | ≥ 100 nM | ≥ 100 nM | ≥ 100 nM | ≥ 100 nM
29 | O=S(=O)(NCCOC1CC1)c1ccc(Nc2ncc(C(F)(F)F)c(-n3cccn3)n2)cc1 [Example 129] | ≥ 100 nM | ≥ 100 nM | ≥ 100 nM | ≥ 100 nM
30 | O=S(=O)(CCCO)c1ccc(Nc2ncc(C(F)(F)F)c(-n3cccn3)n2)cc1 [Example 130, 3-[4-[[4-pyrazol-1-yl-5-(trifluoromethyl)pyrimidin-2-yl]amino]phenyl]sulfonylpropan-1-ol] | 10 to 100 nM | ≥ 100 nM | ≥ 100 nM | ≥ 100 nM
31 | O=S(=O)(NCC1(O)CC1)c1ccc(Nc2ncc(C(F)(F)F)c(-n3cccn3)n2)cc1 [Example 131] | ≤ 10 nM | ≥ 100 nM | ≥ 100 nM | ≥ 100 nM
32 | O=S(=O)(NCC1(CO)CC1)c1ccc(Nc2ncc(C(F)(F)F)c(-n3cccn3)n2)cc1 [Example 132] | 10 to 100 nM | ≥ 100 nM | ≥ 100 nM | ≥ 100 nM
33 | CC(CO)NS(=O)(=O)c1ccc(Nc2ncc(C(F)(F)F)c(-n3cccn3)n2)cc1 (stereo not drawn) [Example 133] | ≤ 10 nM | ≥ 100 nM | 10 to 100 nM | ≥ 100 nM
